Measured values from ChEMBL document CHEMBL1275399, “Novel potent orally active multitargeted receptor tyrosine kinase inhibitors: synthesis, structure-activity relationships, and antitumor activities of 2-indolinone derivatives” (J Med Chem, 2010).

Tests used:
HT-29 [1] = assay: Antitumor activity against human HT-29 cells xenografted in po dosed BALB/cA nude mouse assessed as inhibition of tumor growth administered 11 days after tumor implantation qd for 14 days; type: functional, organism-based
[2] = target: Mast/stem cell growth factor receptor Kit (Homo sapiens, UniProt P10721); assay: Inhibition of c-Kit after 30 mins by ELISA
Mus musculus [3] = assay: Toxicity in human HT-29 cells xenografted BALB/cA nude mouse assessed as weight loss at up to 30 mg/kg, po administered 11 days after tumor implantation qd for 14 days; type: organism-based; parameters: dose 30 mg/kg, route oral; details: in vivo
[4] = Half life in Sprague-Dawley rat at 10 mg/kg, po and 10 mg/kg iv; type: ADME, organism-based; details: in vivo
HT-29 [5] = assay: animal or person; details: Mus musculus, HT-29, po, read-out: TGI
Description: Antitumor activity against human HT-29 cells xenografted in BALB/cA nude mouse assessed as inhibition of tumor growth at 10 mg/kg, po administered 11 days after tumor implantation qd for 14 days

[6] = Cmax in Sprague-Dawley rat at 10 mg/kg, po and 10 mg/kg iv; type: ADME, organism-based; details: in vivo
Rattus norvegicus = assay: AUC in Sprague-Dawley rat at 40 mg/kg, po; type: ADME, organism-based, Plasma; parameters: dose 40 mg/kg, route oral; details: in vivo
[7] = Volume of distribution in Sprague-Dawley rat at 10 mg/kg, po and 10 mg/kg iv; type: ADME, organism-based; details: in vivo
[8] = Clearance in Sprague-Dawley rat at 10 mg/kg, po and 10 mg/kg iv; type: ADME, organism-based; details: in vivo
[9] = Oral bioavailability in Sprague-Dawley rat at 10 mg/kg; type: ADME, organism-based; details: in vivo
Mus musculus [10] = assay: Toxicity in human HT-29 cells xenografted BALB/cA nude mouse assessed as mortality at up to 30 mg/kg, po administered 11 days after tumor implantation qd for 14 days; type: organism-based; parameters: dose 30 mg/kg, route oral; details: in vivo
[11] = target: Platelet-derived growth factor receptor beta (Homo sapiens, UniProt P09619); assay: Inhibition of human PDGFRbeta after 30 mins by ELISA
HT-29 [12] = assay: animal or person; details: Mus musculus, HT-29, po, read-out: TGI; remark: listed apart in the source
Description: Antitumor activity against human HT-29 cells xenografted in BALB/cA nude mouse assessed as inhibition of tumor growth at 30 mg/kg, po administered 11 days after tumor implantation qd for 14 days

Sequence of Platelet-derived growth factor receptor beta (P09619 whole entry): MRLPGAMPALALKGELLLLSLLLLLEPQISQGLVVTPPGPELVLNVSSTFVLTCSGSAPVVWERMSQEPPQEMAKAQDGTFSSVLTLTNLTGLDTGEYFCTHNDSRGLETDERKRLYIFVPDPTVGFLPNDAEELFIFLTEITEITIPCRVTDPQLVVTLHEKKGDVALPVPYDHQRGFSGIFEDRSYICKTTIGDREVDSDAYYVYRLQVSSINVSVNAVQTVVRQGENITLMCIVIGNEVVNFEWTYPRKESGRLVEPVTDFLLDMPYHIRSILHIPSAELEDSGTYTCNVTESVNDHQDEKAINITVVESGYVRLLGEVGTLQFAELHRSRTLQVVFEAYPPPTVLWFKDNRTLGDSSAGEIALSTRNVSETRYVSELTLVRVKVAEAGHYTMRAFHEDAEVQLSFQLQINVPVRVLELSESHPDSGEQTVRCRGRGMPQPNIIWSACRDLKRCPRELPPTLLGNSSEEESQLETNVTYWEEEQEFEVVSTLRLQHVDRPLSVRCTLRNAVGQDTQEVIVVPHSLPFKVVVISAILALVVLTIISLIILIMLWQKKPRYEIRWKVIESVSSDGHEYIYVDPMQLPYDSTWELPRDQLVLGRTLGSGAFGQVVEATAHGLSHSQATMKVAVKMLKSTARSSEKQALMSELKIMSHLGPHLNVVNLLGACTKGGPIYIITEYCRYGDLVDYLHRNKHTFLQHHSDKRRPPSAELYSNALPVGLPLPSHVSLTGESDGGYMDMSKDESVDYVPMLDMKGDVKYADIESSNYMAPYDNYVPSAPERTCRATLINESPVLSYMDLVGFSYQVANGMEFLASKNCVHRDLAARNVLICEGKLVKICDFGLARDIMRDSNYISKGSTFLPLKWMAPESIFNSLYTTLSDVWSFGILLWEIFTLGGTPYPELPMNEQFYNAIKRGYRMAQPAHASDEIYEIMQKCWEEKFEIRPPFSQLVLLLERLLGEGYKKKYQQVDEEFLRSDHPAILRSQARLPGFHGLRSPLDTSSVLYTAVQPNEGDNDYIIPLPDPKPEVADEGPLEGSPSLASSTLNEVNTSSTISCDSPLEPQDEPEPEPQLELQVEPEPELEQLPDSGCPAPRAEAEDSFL
Sequence of Mast/stem cell growth factor receptor Kit (P10721 whole entry): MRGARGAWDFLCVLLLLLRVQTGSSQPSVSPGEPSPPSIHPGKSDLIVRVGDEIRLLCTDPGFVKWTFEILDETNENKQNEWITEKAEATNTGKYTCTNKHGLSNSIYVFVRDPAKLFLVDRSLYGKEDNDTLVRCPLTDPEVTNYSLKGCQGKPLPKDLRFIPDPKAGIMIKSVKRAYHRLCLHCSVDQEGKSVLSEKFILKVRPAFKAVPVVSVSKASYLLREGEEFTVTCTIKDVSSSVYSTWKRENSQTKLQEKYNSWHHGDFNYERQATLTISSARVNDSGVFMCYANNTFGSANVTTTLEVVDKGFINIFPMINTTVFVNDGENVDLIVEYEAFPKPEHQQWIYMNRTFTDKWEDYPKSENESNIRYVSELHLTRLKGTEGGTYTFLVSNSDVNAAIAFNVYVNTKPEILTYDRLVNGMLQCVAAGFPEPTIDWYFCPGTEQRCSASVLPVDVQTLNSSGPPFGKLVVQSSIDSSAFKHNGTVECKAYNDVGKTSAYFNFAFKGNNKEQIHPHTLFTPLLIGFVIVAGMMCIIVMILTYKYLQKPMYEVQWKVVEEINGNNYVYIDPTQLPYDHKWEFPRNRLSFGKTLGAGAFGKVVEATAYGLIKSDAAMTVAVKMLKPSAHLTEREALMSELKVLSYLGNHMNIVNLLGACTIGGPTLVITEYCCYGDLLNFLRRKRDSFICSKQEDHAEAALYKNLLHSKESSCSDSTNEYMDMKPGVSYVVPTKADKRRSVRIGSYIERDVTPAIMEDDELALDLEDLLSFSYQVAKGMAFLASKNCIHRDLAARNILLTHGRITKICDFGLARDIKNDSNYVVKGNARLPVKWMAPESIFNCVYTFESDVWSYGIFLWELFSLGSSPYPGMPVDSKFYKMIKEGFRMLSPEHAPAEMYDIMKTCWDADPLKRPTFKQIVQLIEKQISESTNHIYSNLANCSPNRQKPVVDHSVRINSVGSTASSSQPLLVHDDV

Row | SMILES | IC50 [2] [nM] | half-life [4] [h] | Cmax [6] [ng/mL] | AUC (Rattus norvegicus) [ug/hr.ml] | Vd [7] [L/kg] | clearance [8] [mL/min/kg] | bioavailability [9] [%] | IC50 [11] [nM] | other results
1 | CCN(CC)CCN1CCc2[nH]c(/C=C3\C(=O)Nc4ccc(F)cc43)c(C)c2C1=O [FAMITINIB] | 2 | 18 | 450 | 10.96 | 97.4 | 64.5 | 36.7 | 4 | Activity (HT-29 [1]): Dose-dependent effect; Activity (Mus musculus [3]): Toxic; inhibition in vivo at 10 mg/kg (HT-29 [5]): 49.8%; Activity (Mus musculus [10]): Toxic
2 | Cc1c(/C=C2\C(=O)Nc3ccc(F)cc32)[nH]c2c1C(=O)N(C[C@H](O)CN1CCOCC1)CCC2 [HENATINIB] | 8 | 3.76 | 9030 | 49.21 | 5.1 | 21 | 55.2 | 11 | Activity (HT-29 [1]): Dose-dependent effect; inhibition in vivo at 10 mg/kg (HT-29 [5]): 51.7%
3 | Cc1c(/C=C2\C(=O)Nc3ccc(F)cc32)[nH]c2c1C(=O)N(CCN1CCCC1)CC2 | 3 |  |  |  |  |  |  | 4 | 
4 | Cc1c(/C=C2\C(=O)Nc3ccc(F)cc32)[nH]c2c1C(=O)N(CCN1CCOCC1)CC2 | 1 |  |  |  |  |  |  | 10 | 
5 | Cc1c(/C=C2\C(=O)Nc3ccc(F)cc32)[nH]c2c1C(=O)N(C[C@H](O)CN1CCOCC1)CC2 | 1 | 3.41 | 6110 | 41.18 | 4.13 | 17 | 50.7 | 8 | 
6 | CCN(CC)CCNC(=O)c1c(C)[nH]c(/C=C2\C(=O)Nc3ccc(F)cc32)c1C [SUNITINIB] |  |  |  |  |  |  |  |  | inhibition in vivo at 30 mg/kg (HT-29 [12]): 53.8%; Activity (HT-29 [1]): Dose-dependent effect

Now from value to molecule, other results behind:

Row | IC50 [2] [nM] | half-life [4] [h] | Cmax [6] [ng/mL] | AUC (Rattus norvegicus) [ug/hr.ml] | Vd [7] [L/kg] | clearance [8] [mL/min/kg] | bioavailability [9] [%] | IC50 [11] [nM] | SMILES | other results
7 | 1 |  |  |  |  |  |  | 3 | Cc1c(/C=C2\C(=O)Nc3ccc(F)cc32)[nH]c2c1C(=O)N(CCN(C)C)CC2 | 
8 | 4 |  |  |  |  |  |  | 5 | Cc1c(/C=C2\C(=O)Nc3ccc(F)cc32)[nH]c2c1C(=O)N(CCN1CCOCC1)CCC2 | 
9 | 9 |  |  |  |  |  |  | 13 | CCN(CC)CCN1CCCCc2[nH]c(/C=C3\C(=O)Nc4ccc(F)cc43)c(C)c2C1=O | 
10 | 4 | 9.65 | 2410 | 27.61 | 18.8 | 22.8 | 65.8 | 10 | CCN(CC)CCN1CCCc2[nH]c(/C=C3\C(=O)Nc4ccc(F)cc43)c(C)c2C1=O | 
11 | 4 |  |  |  |  |  |  | 2 | CCN(CC)CCN1CCc2[nH]c(/C=C3\C(=O)Nc4ccc(Cl)cc43)c(C)c2C1=O | 
12 | 4 |  |  |  |  |  |  | 3 | CCN(CC)CCN1CCc2[nH]c(/C=C3\C(=O)Nc4ccc(Br)cc43)c(C)c2C1=O | 
